PubChem BioAssay AID1259407 (Chemical Carcinogenesis Research Information System (CCRIS), 2018)
Activity calls are given as the source filed them. No rule for the calls is given here.

Test system: CCRIS mutagenicity, Ames/micronucleus/aberration tests
Assay: CCRIS mutagenicity studies
[1] = Test System: AMES SALMONELLA TYPHIMURIUM, Strain/Indicator: TA100, Metabolic Activation: RAT, LIVER, S-9, PHENOBARBITAL AND 5,6-BENZOFLAVONE, Method: PREINCUBATION
[2] = Test System: AMES SALMONELLA TYPHIMURIUM, Strain/Indicator: TA98, Metabolic Activation: NONE, Method: PREINCUBATION
[3] = Test System: AMES SALMONELLA TYPHIMURIUM, Strain/Indicator: TA100, Metabolic Activation: NONE, Method: PREINCUBATION
[4] = Test System: AMES SALMONELLA TYPHIMURIUM, Strain/Indicator: TA1535, Metabolic Activation: NONE, Method: PREINCUBATION
[5] = Test System: AMES SALMONELLA TYPHIMURIUM, Strain/Indicator: TA1537, Metabolic Activation: NONE, Method: PREINCUBATION
[6] = Test System: AMES SALMONELLA TYPHIMURIUM, Strain/Indicator: TA98, Metabolic Activation: NONE, Method: STANDARD PLATE
[7] = Test System: AMES SALMONELLA TYPHIMURIUM, Strain/Indicator: TA100, Metabolic Activation: NONE, Method: STANDARD PLATE

Compound: CCCN(CCC)c1c([N+](=O)[O-])cc(C(F)(F)F)cc1[N+](=O)[O-]
- mutagenic call (Test System: AMES SALMONELLA TYPHIMURIUM, Strain/Indicator: TA98, Metabolic Activation: LIVER S-9): inactive; negative
- mutagenic call (Test System: AMES SALMONELLA TYPHIMURIUM, Strain/Indicator: TA98, Metabolic Activation: NONE): inactive; negative
- mutagenic call (Test System: AMES SALMONELLA TYPHIMURIUM, Strain/Indicator: TA100, Metabolic Activation: LIVER S-9): inactive; negative
- mutagenic call (Test System: AMES SALMONELLA TYPHIMURIUM, Strain/Indicator: TA100, Metabolic Activation: NONE): inactive; negative
- mutagenic call (Test System: AMES SALMONELLA TYPHIMURIUM, Strain/Indicator: TA1535, Metabolic Activation: LIVER S-9): inactive; negative
- mutagenic call (Test System: AMES SALMONELLA TYPHIMURIUM, Strain/Indicator: TA1535, Metabolic Activation: NONE): inactive; negative
- mutagenic call (Test System: AMES SALMONELLA TYPHIMURIUM, Strain/Indicator: TA1537, Metabolic Activation: LIVER S-9): inactive; negative
- mutagenic call (Test System: AMES SALMONELLA TYPHIMURIUM, Strain/Indicator: TA1537, Metabolic Activation: NONE): inactive; negative
- mutagenic call (Test System: AMES SALMONELLA TYPHIMURIUM, Strain/Indicator: TA1538, Metabolic Activation: LIVER S-9): inactive; negative
- mutagenic call (Test System: AMES SALMONELLA TYPHIMURIUM, Strain/Indicator: TA1538, Metabolic Activation: NONE): inactive; negative
- mutagenic call (Test System: CHINESE HAMSTER V-79 CELLS, Strain/Indicator: HGPRT, Metabolic Activation: LIVER S-9): inactive; negative
- mutagenic call (Test System: CHINESE HAMSTER V-79 CELLS, Strain/Indicator: HGPRT, Metabolic Activation: NONE): inactive; negative
- mutagenic call (Test System: CHO-KI CELLS, Strain/Indicator: HGPRT, Metabolic Activation: LIVER S-9): inactive; negative
- mutagenic call (Test System: CHO-KI CELLS, Strain/Indicator: HGPRT, Metabolic Activation: NONE): inactive; negative
- mutagenic call (Test System: UDS HELA CELLS, Metabolic Activation: LIVER S-9): inactive; negative
- mutagenic call (Test System: UDS HELA CELLS, Metabolic Activation: NONE): inactive; negative
- mutagenic call (Test System: UDS RAT HEPATOCYTES, Metabolic Activation: NONE): inactive; negative

Compound: Fc1cc2cccnc2c2cccnc12
- mutagenic call [1]: active; positive

Compound: CNNc1ccn([C@@H]2O[C@H](CO)[C@@H](O)[C@H]2O)c(=O)n1
- mutagenic call (Test System: CHINESE HAMSTER V-79, Strain/Indicator: V-79/6-THIOGUANINE, Metabolic Activation: NONE, Method: REPLATING): active; positive

Compound: NC(=O)CCCCC(N)=O
- mutagenic call (Test System: AMES SALMONELLA TYPHIMURIUM, Strain/Indicator: TA98, Metabolic Activation: HAMSTER, LIVER, S-9, AROCLOR 1254, Method: PREINCUBATION): inactive; negative
- mutagenic call [2]: inactive; negative
- mutagenic call (Test System: AMES SALMONELLA TYPHIMURIUM, Strain/Indicator: TA98, Metabolic Activation: RAT, LIVER, S-9, AROCLOR 1254, Method: PREINCUBATION): inactive; negative
- mutagenic call (Test System: AMES SALMONELLA TYPHIMURIUM, Strain/Indicator: TA100, Metabolic Activation: HAMSTER, LIVER, S-9, AROCLOR 1254, Method: PREINCUBATION): inactive; negative
- mutagenic call [3]: inactive; negative
- mutagenic call (Test System: AMES SALMONELLA TYPHIMURIUM, Strain/Indicator: TA100, Metabolic Activation: RAT, LIVER, S-9, AROCLOR 1254, Method: PREINCUBATION): inactive; negative
- mutagenic call (Test System: AMES SALMONELLA TYPHIMURIUM, Strain/Indicator: TA1535, Metabolic Activation: HAMSTER, LIVER, S-9, AROCLOR 1254, Method: PREINCUBATION): inactive; negative
- mutagenic call [4]: inactive; negative
- mutagenic call (Test System: AMES SALMONELLA TYPHIMURIUM, Strain/Indicator: TA1535, Metabolic Activation: RAT, LIVER, S-9, AROCLOR 1254, Method: PREINCUBATION): inactive; negative
- mutagenic call (Test System: AMES SALMONELLA TYPHIMURIUM, Strain/Indicator: TA1537, Metabolic Activation: HAMSTER, LIVER, S-9, AROCLOR 1254, Method: PREINCUBATION): inactive; negative
- mutagenic call [5]: inactive; negative
- mutagenic call (Test System: AMES SALMONELLA TYPHIMURIUM, Strain/Indicator: TA1537, Metabolic Activation: RAT, LIVER, S-9, AROCLOR 1254, Method: PREINCUBATION): inactive; negative

Compound: Fc1cnc2c(c1)cc(F)c1ccccc12
- mutagenic call [1]: inactive; negative

Compound: CCN1CCOCC1
- mutagenic call (Test System: AMES SALMONELLA TYPHIMURIUM, Strain/Indicator: TA98, Metabolic Activation: HAMSTER, LIVER, S-9, AROCLOR 1254 (10%), Method: PREINCUBATION): inactive; negative
- mutagenic call [2]: inactive; negative
- mutagenic call (Test System: AMES SALMONELLA TYPHIMURIUM, Strain/Indicator: TA98, Metabolic Activation: RAT, LIVER, S-9, AROCLOR 1254 (10%), Method: PREINCUBATION): inactive; negative
- mutagenic call (Test System: AMES SALMONELLA TYPHIMURIUM, Strain/Indicator: TA100, Metabolic Activation: HAMSTER, LIVER, S-9, AROCLOR 1254 (10%), Method: PREINCUBATION): inactive; negative
- mutagenic call [3]: inactive; negative
- mutagenic call (Test System: AMES SALMONELLA TYPHIMURIUM, Strain/Indicator: TA100, Metabolic Activation: RAT, LIVER, S-9, AROCLOR 1254 (10%), Method: PREINCUBATION): inactive; negative
- mutagenic call (Test System: AMES SALMONELLA TYPHIMURIUM, Strain/Indicator: TA1535, Metabolic Activation: HAMSTER, LIVER, S-9, AROCLOR 1254 (5 OR 30%), Method: PREINCUBATION): active; positive
- mutagenic call (Test System: AMES SALMONELLA TYPHIMURIUM, Strain/Indicator: TA1535, Metabolic Activation: HAMSTER, LIVER, S-9, AROCLOR 1254 (10%), Method: PREINCUBATION): active; positive
- mutagenic call [4]: inactive; negative
- mutagenic call (Test System: AMES SALMONELLA TYPHIMURIUM, Strain/Indicator: TA1535, Metabolic Activation: RAT, LIVER, S-9, AROCLOR 1254 (5 OR 30%), Method: PREINCUBATION): active; positive
- mutagenic call (Test System: AMES SALMONELLA TYPHIMURIUM, Strain/Indicator: TA1535, Metabolic Activation: RAT, LIVER, S-9, AROCLOR 1254 (10%), Method: PREINCUBATION): active; positive
- mutagenic call (Test System: AMES SALMONELLA TYPHIMURIUM, Strain/Indicator: TA1537, Metabolic Activation: HAMSTER, LIVER, S-9, AROCLOR 1254 (10%), Method: PREINCUBATION): inactive; negative
- mutagenic call [5]: inactive; negative
- mutagenic call (Test System: AMES SALMONELLA TYPHIMURIUM, Strain/Indicator: TA1537, Metabolic Activation: RAT, LIVER, S-9, AROCLOR 1254 (10%), Method: PREINCUBATION): inactive; negative

Compound: CC(=O)OC1Cc2c3ccc4ccccc4c3cc3ccc(C)c1c23 (stereo unspecified)
- mutagenic call [6]: inactive; negative
- mutagenic call [7]: active; positive

Compound: C1=Cc2cc3cc4ccccc4cc3c3cccc1c23
- mutagenic call (Test System: CHINESE HAMSTER OVARY, Strain/Indicator: V-79/6-THIOGUANINE, Metabolic Activation: RAT, LIVER, S-9, AROCLOR 1254, Method: FLASK ASSAY): active; positive
- mutagenic call (Test System: CHINESE HAMSTER OVARY, Strain/Indicator: V-79/6-THIOGUANINE, Metabolic Activation: SHE CELL MEDIATED, Method: FLASK ASSAY): inactive; negative
- mutagenic call (Test System: CHINESE HAMSTER V-79, Strain/Indicator: V-79/6-THIOGUANINE, Metabolic Activation: RAT, LIVER, S-9, AROCLOR 1254, Method: SUSPENSION/PLATE): active; positive

Compound: CC1OC(OC2CC(O)(CO)Cc3c(O)c4c(c(O)c32)C(=O)c2ccccc2C4=O)C(I)C(O)C1O (stereo unspecified)
- mutagenic call (Test System: AMES SALMONELLA TYPHIMURIUM, Strain/Indicator: TA97A, Metabolic Activation: NONE, Method: STANDARD PLATE): inactive; negative
- mutagenic call (Test System: AMES SALMONELLA TYPHIMURIUM, Strain/Indicator: TA97A, Metabolic Activation: RAT, LIVER, S-9, AROCLOR 1254, Method: STANDARD PLATE): inactive; negative
- mutagenic call [6]: inactive; negative
- mutagenic call (Test System: AMES SALMONELLA TYPHIMURIUM, Strain/Indicator: TA98, Metabolic Activation: RAT, LIVER, S-9, AROCLOR 1254, Method: STANDARD PLATE): inactive; negative
- mutagenic call [7]: inactive; negative
- mutagenic call (Test System: AMES SALMONELLA TYPHIMURIUM, Strain/Indicator: TA100, Metabolic Activation: RAT, LIVER, S-9, AROCLOR 1254, Method: STANDARD PLATE): inactive; negative
- mutagenic call (Test System: AMES SALMONELLA TYPHIMURIUM, Strain/Indicator: TA102, Metabolic Activation: NONE, Method: STANDARD PLATE): active; positive
- mutagenic call (Test System: AMES SALMONELLA TYPHIMURIUM, Strain/Indicator: TA102, Metabolic Activation: RAT, LIVER, S-9, AROCLOR 1254, Method: STANDARD PLATE): inactive; negative

Compound: COc1c(OC)c2occc2c2oc(=O)ccc12
- mutagenic call [6]: inactive; negative
- mutagenic call (Test System: AMES SALMONELLA TYPHIMURIUM, Strain/Indicator: TA98, Metabolic Activation: RAT, LIVER, S-9, PHENOBARBITAL, Method: STANDARD PLATE): inactive; negative
